The supplement of paper PMC11451515

System: SEM cells
Assay: cell viability relative to DMSO control; higher = less cytotoxic
Settings: 48 h
Summary of the method: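 Viability values are per-plate percentages of DMSO wells, with background from cell-free wells. Library compounds in DMSO were pin-dosed, in an 11-point threefold series from 47 μM to 0.79 nM, onto NOMO1 or SEM (500 cells/well) or P12-Ichikawa (1000 cells/well) leukemia cells in 1536-well plates (5 μl). Those cells had been adapted for at least four passages in each medium, and CellTiter-Glo One luminescence was read after 48 h at 37°C.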

[1] = HPLM + 10% dialyzed FBS, 0.000781 µM
[2] = HPLM + 10% dialyzed FBS, 0.00234 µM
[3] = HPLM + 10% dialyzed FBS, 0.00702 µM
[4] = HPLM + 10% dialyzed FBS, 0.0211 µM
[5] = HPLM + 10% dialyzed FBS, 0.0632 µM
[6] = HPLM + 10% dialyzed FBS, 0.19 µM
[7] = HPLM + 10% dialyzed FBS, 0.569 µM
[8] = HPLM + 10% dialyzed FBS, 1.71 µM
[9] = HPLM + 10% dialyzed FBS, 5.12 µM
[10] = HPLM + 10% dialyzed FBS, 15.4 µM
[11] = HPLM + 10% dialyzed FBS, 46.1 µM
[12] = RPMI 5 mM glucose + 10% FBS, 0.000781 µM
[13] = RPMI 5 mM glucose + 10% FBS, 0.00234 µM
[14] = RPMI 5 mM glucose + 10% FBS, 0.00702 µM
[15] = RPMI 5 mM glucose + 10% FBS, 0.0211 µM
[16] = RPMI 5 mM glucose + 10% FBS, 0.0632 µM
[17] = RPMI 5 mM glucose + 10% FBS, 0.19 µM
[18] = RPMI 5 mM glucose + 10% FBS, 0.569 µM
[19] = RPMI 5 mM glucose + 10% FBS, 1.71 µM
[20] = RPMI 5 mM glucose + 10% FBS, 5.12 µM
[21] = RPMI 5 mM glucose + 10% FBS, 15.4 µM
[22] = RPMI 5 mM glucose + 10% FBS, 46.1 µM
[23] = RPMI 5 mM glucose + 10% dialyzed FBS, 0.000781 µM
[24] = RPMI 5 mM glucose + 10% dialyzed FBS, 0.00234 µM
[25] = RPMI 5 mM glucose + 10% dialyzed FBS, 0.00702 µM
[26] = RPMI 5 mM glucose + 10% dialyzed FBS, 0.0211 µM
[27] = RPMI 5 mM glucose + 10% dialyzed FBS, 0.0632 µM
[28] = RPMI 5 mM glucose + 10% dialyzed FBS, 0.19 µM
[29] = RPMI 5 mM glucose + 10% dialyzed FBS, 0.569 µM
[30] = RPMI 5 mM glucose + 10% dialyzed FBS, 1.71 µM
[31] = RPMI 5 mM glucose + 10% dialyzed FBS, 5.12 µM
[32] = RPMI 5 mM glucose + 10% dialyzed FBS, 15.4 µM
[33] = RPMI 5 mM glucose + 10% dialyzed FBS, 46.1 µM

Compound | cell viability [1] | cell viability [2] | cell viability [3] | cell viability [4] | cell viability [5] | cell viability [6] | cell viability [7] | cell viability [8] | cell viability [9] | cell viability [10] | cell viability [11] | cell viability [12] | cell viability [13] | cell viability [14] | cell viability [15] | cell viability [16] | cell viability [17] | cell viability [18] | cell viability [19] | cell viability [20] | cell viability [21] | cell viability [22] | cell viability [23] | cell viability [24] | cell viability [25] | cell viability [26] | cell viability [27] | cell viability [28] | cell viability [29] | cell viability [30] | cell viability [31] | cell viability [32] | cell viability [33]
CCOP(=O)(OCC)C(C)NC(=O)N(CCCl)N=O (stereo unspecified) | 101% | 109% | 125% | 114% | 126% | 128% | 129% | 122% | 119% | 127% | 94.9% | 90.7% | 98.1% | 98.7% | 104% | 101% | 111% | 78.4% | 95.5% | 87.1% | 84.6% | 74.4% | 108% | 97% | 116% | 122% | 112% | 127% | 127% | 137% | 107% | 103% | 81.2%
CCOC(=O)c1ccc(C#Cc2ccc3c(c2)C(C)(C)CCS3)nc1 | 105% | 105% | 109% | 116% | 111% | 75.4% | 114% | 118% | 108% | 114% | 102% | 98% | 121% | 122% | 126% | 118% | 75.6% | 121% | 122% | 116% | 108% | 113% | 89.2% | 100% | 101% | 98.1% | 106% | 66.4% | 99.5% | 94.8% | 90% | 89.3% | 93.5%
COc1cc2ncnc(Nc3ccc(F)c(Cl)c3)c2cc1OCCCN1CCOCC1 | 118% | 113% | 123% | 103% | 123% | 112% | 107% | 102% | 86.8% | 48.5% | 10.9% |  |  |  |  |  |  |  |  |  |  |  | 105% | 119% | 125% | 102% | 125% | 118% | 123% | 108% | 78.1% | 82% | 31.9%
CC(C)(O)CNc1nc(Nc2ccnc(C(F)(F)F)c2)nc(-c2cccc(C(F)(F)F)n2)n1 | 106% | 89% | 101% | 105% | 91.3% | 109% | 110% | 93.5% | 67.2% | 33.1% | 24.6% | 99.5% | 84.7% | 119% | 107% | 80.7% | 122% | 117% | 64.7% | 31.3% | 15.8% | 14.6% | 105% | 89.8% | 112% | 107% | 106% | 114% | 122% | 88.7% | 44.6% | 21.4% | 14.7%
COc1cc2nc(-c3ccc(N4CCN(C)CC4)cc3)nc(NCCN3CCOCC3)c2cc1OC | 104% | 111% | 95.7% | 102% | 112% | 44.1% | 11.3% | 8.34% | 4.72% | 4.43% | 2.62% | 108% | 115% | 91% | 111% | 107% | 107% | 41.1% | 14.1% | 7.04% | 3.02% | 2.56% | 114% | 106% | 107% | 102% | 111% | 81.7% | 29.3% | 10.7% | 5.08% | 3.57% | 2.59%
N/C(=N\C(=O)c1nc(Cl)c(N)nc1N)NCc1ccccc1 | 74.5% | 91.8% | 92.9% | 106% | 91.3% | 94.6% | 113% | 102% | 98.8% | 85% | 77.2% | 76.4% | 91.1% | 95.2% | 94.3% | 83.8% | 96.5% | 84.3% | 97.3% | 94.6% | 62.3% | 43.5% | 91% | 103% | 94% | 102% | 81.6% | 99.8% | 94.2% | 99.5% | 90.8% | 76.2% | 59.7%
CC(C)[C@H](CO)Nc1nc(Nc2ccc(C(=O)O)c(Cl)c2)c2ncn(C(C)C)c2n1 | 113% | 104% | 103% | 112% | 126% | 115% | 97.6% | 73.6% | 99.2% | 92.2% | 54.2% | 89.7% | 128% | 114% | 95.2% | 106% | 102% | 86.6% | 83.2% | 75.5% | 91.7% | 45% | 102% | 120% | 97.3% | 107% | 116% | 107% | 114% | 79.1% | 109% | 95.5% | 57.8%
COc1cc(/C=C/C(=O)CC(=O)/C=C/c2ccc(O)c(OC)c2)ccc1O | 66.6% | 96.9% | 108% | 98.8% | 102% | 99.5% | 104% | 118% | 90.4% | 15.1% | 5.19% | 77.5% | 114% | 119% | 128% | 137% | 120% | 120% | 128% | 99.5% | 23.6% | 5.59% | 72.8% | 96.8% | 106% | 108% | 107% | 115% | 107% | 118% | 90.8% | 34.8% | 5.02%
COc1ccc(CCC(=O)Nc2nc3ccc(Cl)cc3s2)cc1OC | 104% | 114% | 121% | 111% | 120% | 104% | 116% | 112% | 132% | 116% | 111% | 112% | 92.8% | 108% | 102% | 123% | 127% | 124% | 126% | 115% | 104% | 95% | 120% | 102% | 105% | 113% | 120% | 107% | 101% | 121% | 102% | 117% | 105%
c1ccc2c(Oc3nc(Nc4ccc(N5CCOCC5)cc4)c4ncn(C5CCCCC5)c4n3)cccc2c1 | 91% | 96.7% | 101% | 112% | 120% | 116% | 131% | 120% | 99.7% | 100% | 67.1% | 101% | 122% | 138% | 133% | 133% | 136% | 125% | 139% | 108% | 105% | 67% | 108% | 141% | 115% | 130% | 142% | 129% | 126% | 109% | 126% | 110% | 53.4%
CC(C)c1ccc2oc3nc(N)c(C(=O)O)cc3c(=O)c2c1 | 106% | 109% | 96.6% | 109% | 126% | 108% | 128% | 115% | 106% | 118% | 102% | 116% | 131% | 122% | 122% | 145% | 134% | 150% | 121% | 134% | 140% | 137% | 98% | 118% | 134% | 141% | 141% | 131% | 143% | 127% | 146% | 146% | 129%
CN1[C@@H]2CC(O)C[C@H]1[C@@H]1O[C@@H]12 (stereo partly specified) |  |  |  |  |  |  |  |  |  |  |  | 124% | 123% | 114% | 19.5% | 134% | 115% | 109% | 130% | 115% | 109% | 7.57% | 101% | 126% | 116% | 21.8% | 103% | 111% | 103% | 106% | 94.3% | 81.4% | 5.54%
NC\1=N\C(=O)N(\C=N1)[C@H]2C[C@H](O)[C@@H](CO)O2 | 57.8% | 100% | 94.7% | 97.2% | 118% | 101% | 89.8% | 71.3% | 41% | 29.5% | 16.5% | 54.1% | 91.3% | 86% | 92.9% | 107% | 92% | 81.8% | 63.8% | 32.2% | 22.2% | 12.1% | 55.1% | 99.4% | 81% | 84.3% | 91.4% | 93.3% | 67.5% | 49.1% | 32% | 27.5% | 21.2%
CC(Oc1ccc(O)cc1)(P(=O)(O)O)P(=O)(O)O | 108% | 105% | 98.2% | 108% | 109% | 104% | 86.1% | 101% | 83.3% | 65.5% | 28.5% | 107% | 110% | 103% | 116% | 109% | 96.2% | 92.3% | 105% | 83.1% | 48.4% | 25.1% | 98.8% | 85.7% | 103% | 97.9% | 113% | 110% | 90.1% | 96.3% | 74.9% | 55.1% | 28.6%
C[C@@H]1CN(CC(=O)N2CC(C)(C)c3ncc(Cc4ccc(F)cc4)cc32)[C@@H](CN2CCOC[C@H]2C)CN1 | 83.8% | 105% | 48% | 115% | 105% | 95.2% | 113% | 85% | 105% | 104% | 73% | 76.3% | 96.3% | 30.4% | 104% | 92.5% | 88.9% | 97.8% | 89.2% | 110% | 80.4% | 54.9% | 86.9% | 116% | 40.8% | 117% | 103% | 114% | 111% | 104% | 111% | 94.5% | 75.6%
CN1C(=O)COc2c(C(=O)NC3CN4CCC3CC4)cc(Cl)cc21 (stereo unspecified) | 114% | 112% | 119% | 100% | 116% | 101% | 118% | 101% | 112% | 105% | 101% | 91.7% | 93.7% | 94% | 96.6% | 104% | 95.7% | 109% | 90.6% | 88.5% | 95.5% | 84.9% | 116% | 120% | 125% | 122% | 118% | 126% | 107% | 109% | 97.6% | 131% | 124%
